Measurements published in US20100048699A1, “CHEMICAL COMPOUNDS” (SYNGENTA CROP PROTECTION, INC., priority 2006, published 2010).

What was measured:
Myzus persicae [1] = assay: Myzus persicae (green peach aphid) sunflower leaf disc spray test; settings: foliar, 144 h, read-out: control of Myzus persicae
Tetranychus urticae = Tetranychus urticae (two-spotted spider mite) bean leaf disc spray test; settings: foliar, 192 h, read-out: control of Tetranychus urticae
Myzus persicae [2] = assay: Myzus persicae (green peach aphid) pea seedling root uptake test; settings: 144 h, read-out: control of Myzus persicae

| SMILES | pest or weed control at 200 ppm (Myzus persicae [1]) [%] | pest or weed control at 200 ppm (Tetranychus urticae) [%] | pest or weed control at 24 ppm (Myzus persicae [2]) [%] |
| --- | --- | --- | --- |
| Cc1c(S(=O)(=O)c2ccc(Cl)cc2)csc1C(=O)OCCNC(=S)NC1CCc2c(F)cccc21 (stereo not shown) [Compound 11.046] | ≥ 80 | ≥ 80 |  |
| CN(C)c1ccc(C(=O)OCCNC(=S)NC2CCc3c(F)cccc32)cc1 (stereo not shown) [Compound 11.015] | ≥ 80 |  |  |
| O=C(OCCNC(=S)NC1CCc2c(F)cccc21)c1ccc(F)cc1 (stereo not shown) [Compound 11.003] | ≥ 80 | ≥ 80 | ≥ 80 |
| N#Cc1ccc(C(=O)OCCNC(=S)NC2CCc3c(F)cccc32)cc1 (stereo not shown) [Compound 11.005] | ≥ 80 | ≥ 80 | ≥ 80 |
| O=C(OCCNC(=S)NC1CCc2c(F)cccc21)c1cc(F)ccc1F (stereo not shown) [Compound 11.013] | ≥ 80 | ≥ 80 | ≥ 80 |
| O=C(OCCNC(=S)NC1CCc2c(F)cccc21)c1ccc(F)c(C(F)(F)F)c1 (stereo not shown) [Compound 11.035] | ≥ 80 | ≥ 80 | ≥ 80 |
| O=C(OCCNC(=S)NC1CCc2c(F)cccc21)N1CCCCC1 (stereo not shown) [Compound 11.001] | ≥ 80 | ≥ 80 |  |
| Cc1ccc(-n2c(=O)cc(C(F)(F)F)n(C)c2=O)cc1C(=O)OCCNC(=S)NC1CCc2c(F)cccc21 (stereo not shown) [Compound 11.043] | ≥ 80 | ≥ 80 |  |
| O=C(OCCNC(=S)NC1CCc2c(F)cccc21)OCc1ccc([N+](=O)[O-])cc1 (stereo not shown) [Compound 11.030] | ≥ 80 | ≥ 80 | ≥ 80 |
| O=C(OCCNC(=S)NC1CCc2c(F)cccc21)c1cc(Cl)sc1Cl (stereo not shown) [Compound 11.068] | ≥ 80 | ≥ 80 |  |
| O=C(OCCNC(=S)NC1CCc2c(F)cccc21)c1ccccc1Cl (stereo not shown) [Compound 11.012] | ≥ 80 | ≥ 80 | ≥ 80 |
| Cc1oc(C(C)(C)C)cc1C(=O)OCCNC(=S)NC1CCc2c(F)cccc21 (stereo not shown) [Compound 11.045] | ≥ 80 |  | ≥ 80 |
| O=C(OCc1ccccc1C(=O)OCCNC(=S)NC1CCc2c(F)cccc21)c1ccccc1 (stereo not shown) [Compound 11.041] | ≥ 80 | ≥ 80 |  |
| COc1cc(C(=O)OCCNC(=S)NC2CCc3c(F)cccc32)cc(Cl)n1 (stereo not shown) [Compound 11.047] | ≥ 80 | ≥ 80 | ≥ 80 |
| Cc1ccccc1CC(=O)OCCNC(=S)NC1CCc2c(F)cccc21 (stereo not shown) [Compound 11.060] | ≥ 80 | ≥ 80 | ≥ 80 |
| O=C(NCCOC(=O)c1cnn(-c2ccccc2)c1C(F)(F)F)NC1CCc2c(F)cccc21 (stereo not shown) [Compound 11.059] | ≥ 80 | ≥ 80 | ≥ 80 |
| O=C(/C=C/c1cccc(C(F)(F)F)c1)OCCNC(=S)NC1CCc2c(F)cccc21 (stereo not shown) [Compound 11.048] | ≥ 80 | ≥ 80 | ≥ 80 |
| CCCC(C(=O)OCCNC(=S)NC1CCc2c(F)cccc21)c1ccc(Cl)cc1Cl (stereo not shown) [Compound 11.040] | ≥ 80 | ≥ 80 | ≥ 80 |
| O=C(OCCNC(=S)NC1CCc2c(F)cccc21)c1cncc(Br)c1 (stereo not shown) [Compound 11.049] | ≥ 80 |  | ≥ 80 |
| O=C(Cc1ccccc1F)OCCNC(=S)NC1CCc2c(F)cccc21 (stereo not shown) [Compound 11.062] | ≥ 80 | ≥ 80 | ≥ 80 |
| COc1ccccc1C(=O)OCCNC(=S)NC1CCc2c(F)cccc21 (stereo not shown) [Compound 11.007] | ≥ 80 | ≥ 80 | ≥ 80 |
| O=C(OCCNC(=S)NC1CCc2c(F)cccc21)c1ccc(C(F)(F)F)cc1 (stereo not shown) [Compound 11.024] | ≥ 80 | ≥ 80 | ≥ 80 |
| O=C(OCCNC(=S)NC1CCc2c(F)cccc21)c1cccc(Cl)c1 (stereo not shown) [Compound 11.011] | ≥ 80 | ≥ 80 | ≥ 80 |
| Cc1nn(-c2ccccc2)nc1C(=O)OCCNC(=S)NC1CCc2c(F)cccc21 (stereo not shown) [Compound 11.072] | ≥ 80 | ≥ 80 |  |
| O=C(Cc1ccc(F)cc1)OCCNC(=S)NC1CCc2c(F)cccc21 (stereo not shown) [Compound 11.063] | ≥ 80 | ≥ 80 | ≥ 80 |

| SMILES | pest or weed control at 200 ppm (Myzus persicae [1]) [%] | pest or weed control at 200 ppm (Tetranychus urticae) [%] | pest or weed control at 24 ppm (Myzus persicae [2]) [%] |
| --- | --- | --- | --- |
| O=C(OCCNC(=S)NC1CCc2c(F)cccc21)c1ccc(F)cc1C(F)(F)F (stereo not shown) [Compound 11.034] | ≥ 80 |  | ≥ 80 |
| O=C(OCCNC(=S)NC1CCc2c(F)cccc21)N(c1ccccc1)c1ccccc1 (stereo not shown) [Compound 11.039] | ≥ 80 |  |  |
| O=C(OCCNC(=S)NC1CCc2c(F)cccc21)c1cc(C(F)(F)F)ccc1F (stereo not shown) [Compound 11.052] | ≥ 80 | ≥ 80 |  |
| O=C(OCCNC(=S)NC1CCc2c(F)cccc21)c1ccccc1C(F)(F)F (stereo not shown) [Compound 11.023] | ≥ 80 | ≥ 80 | ≥ 80 |
| CCC(Oc1ccccc1)C(=O)OCCNC(=S)NC1CCc2c(F)cccc21 (stereo not shown) [Compound 11.051] | ≥ 80 | ≥ 80 | ≥ 80 |
| O=C(OCCNC(=S)NC1CCc2c(F)cccc21)c1ccc(F)cc1F (stereo not shown) [Compound 11.014] | ≥ 80 | ≥ 80 | ≥ 80 |
| COC(=O)OCCNC(=S)NC1CCc2c(F)cccc21 (stereo not shown) [Compound 3.038, carbonic acid 2-[3(4-fluoro-indan-1-yl)-thioureido]-ethyl methylester] | ≥ 80 | ≥ 80 | ≥ 80 |
| O=C(OCCNC(=S)NC1CCc2c(F)cccc21)c1ccccc1I (stereo not shown) [Compound 11.054] | ≥ 80 |  | ≥ 80 |
| O=C(OCCNC(=S)NC1CCc2c(F)cccc21)c1ccc(SC(F)(F)C(F)(F)F)cc1 (stereo not shown) [Compound 11.064] | ≥ 80 | ≥ 80 |  |
| COc1ccc(CC(=O)OCCNC(=S)NC2CCc3c(F)cccc32)cc1 (stereo not shown) [Compound 11.016] | ≥ 80 | ≥ 80 | ≥ 80 |
| O=C(/C=C/c1ccc([N+](=O)[O-])cc1)OCCNC(=S)NC1CCc2c(F)cccc21 (stereo not shown) [Compound 11.027] | ≥ 80 |  |  |
| O=C(Cc1cccc(C(F)(F)F)c1)OCCNC(=S)NC1CCc2c(F)cccc21 (stereo not shown) [Compound 11.065] | ≥ 80 | ≥ 80 | ≥ 80 |
| O=C(Cc1ccc(Cl)cc1)OCCNC(=S)NC1CCc2c(F)cccc21 (stereo not shown) [Compound 11.018] | ≥ 80 | ≥ 80 | ≥ 80 |
| C/C(=C\c1ccccc1)C(=O)OCCNC(=S)NC1CCc2c(F)cccc21 (stereo not shown) [Compound 11.053] | ≥ 80 | ≥ 80 | ≥ 80 |
| O=C(OCCNC(=S)NC1CCc2c(F)cccc21)c1ccc(Cl)cc1 (stereo not shown) [Compound 11.010] | ≥ 80 | ≥ 80 | ≥ 80 |
| O=C(OCCNC(=S)NC1CCc2c(F)cccc21)c1ccc(Cl)c([N+](=O)[O-])c1 (stereo not shown) [Compound 11.058] | ≥ 80 | ≥ 80 | ≥ 80 |
| O=C(/C=C/c1ccccc1)OCCNC(=S)NC1CCc2c(F)cccc21 (stereo not shown) [Compound 11.006] | ≥ 80 | ≥ 80 | ≥ 80 |
| COc1ccc(C(=O)OCCNC(=S)NC2CCc3c(F)cccc32)cc1 (stereo not shown) [Compound 11.009] | ≥ 80 | ≥ 80 | ≥ 80 |
| Cc1c(C(=O)OCCNC(=S)NC2CCc3c(F)cccc32)ncn1C(C)(C)C (stereo not shown) [Compound 11.070] | ≥ 80 | ≥ 80 | ≥ 80 |
| O=C(OCCNC(=S)NC1CCc2c(F)cccc21)C1Cc2ccccc2O1 (stereo not shown) [Compound 11.055] | ≥ 80 | ≥ 80 | ≥ 80 |
| Cc1ccsc1C(=O)OCCNC(=S)NC1CCc2c(F)cccc21 (stereo not shown) [Compound 11.067] | ≥ 80 | ≥ 80 |  |
| O=C(OCCNC(=S)NC1CCc2c(F)cccc21)c1cccc2c1OC(F)(F)O2 (stereo not shown) [Compound 11.031] | ≥ 80 |  | ≥ 80 |
| Cc1cc(C(=O)OCCNC(=S)NC2CCc3c(F)cccc32)c(C(F)(F)F)o1 (stereo not shown) [Compound 11.044] | ≥ 80 | ≥ 80 | ≥ 80 |
| COc1ccc(CC(=O)OCCNC(=S)NC2CCc3c(F)cccc32)cc1OC (stereo not shown) [Compound 11.028] | ≥ 80 | ≥ 80 | ≥ 80 |
